Measurements taken from patent publication US20180333399A1, “METHOD OF IMPROVING LIVER FUNCTION” (NAIA METABOLIC, INC., priority 2012, published 2018).
Marks after values point to notes of the source that are not given here.

Key:
[1] = tested on: type 2 diabetes patients; assay: 24 week randomised, placebo-controlled double-blind clinical trial: blood ALT levels; format: in vivo, human; conditions: for ΔALT Week 12, Mean ± SD / ΔALT Week 12, Median (range): change from baseline (Day 0) to Week 12; for ΔALT Week 12, Mean ± SD / ΔALT Week 12, Median (range) / ΔALT Week 24, Mean ± SD / ΔALT Week 24, Median (range): 40 mg b.i.d.; for ΔALT Week 24, Mean ± SD / ΔALT Week 24, Median (range): change from baseline (Day 0) to Week 24; for ΔALT Week 12, MTZ-Placebo / ΔALT Week 24, MTZ-Placebo: difference of mean ΔALT versus matching placebo group
Text: The primary efficacy endpoint for the clinical trial was a reduction in HbA1c (ΔHbA1c) from baseline with methazolamide, relative to placebo, after 24 weeks of treatment. The primary safety measurement was the effect of methazolamide, compared to placebo, on venous blood gas parameters; a measure of acidosis. The clinical trial initially enrolled type 2 diabetes patients who were not treated with any anti-diabetic agent prior to entry into the trial. […] The metformin dose was not altered throughout the trial. Participant baseline demographic data are provided in Table 1-1, Participants randomized into the clinical trial were administered either daily doses of methazolamide (40 mg b.i.d.) or placebo for 24 weeks. Methazolamide was taken as 1×30 mg capsule and 1×10 mg capsule per dose at breakfast and dinner. Placebo (microcrystalline cellulose) was administered in identical presentation. […] Mean ALT levels over time are depicted in FIGS. 1(A) and 1(B).

[2] = tested on: db/db mice; assay: Liver histology (hematoxylin and eosin) in db/db mice; format: in vivo; conditions: after 9 days, 50 mg/kg/day; 3 of the 4 vehicle-treated animals had a high degree of hepatic steatosis
Protocol: (§1) All reagents were purchased from Sigma-Aldrich (Australia). Dosing solutions of methazolamide were prepared fresh daily in sterile saline:PEG400 at 65:35 (v/v), protected from light and stored at room temperature. Male db/db mice (Animal Resource Centre, Australia) were housed with free access to water and food (standard rodent diet: Barastoc Rat & Mouse, Ridley Agriproducts, Australia). Room temperature was maintained at 21±2° C., humidity 40-70%, with a 12 h light/dark cycle. Mice were treated with methazolamide (50 mg/kg/day) or vehicle (n=4 per group) by single oral gavage doses each day for 9 days.
(§2) Daily blood samples were obtained from the tail tip of each mouse and glucose levels measured using a glucometer (AccuCheck II; Roche, Australia). At the end of the study, the animals were humanely killed and a portion of liver tissue (left lobe) was removed and fixed in 10% neutral-buffered formalin. The liver tissue was paraffin-embedded, sectioned (5 μm), mounted and stained with hematoxylin and eosin.

[3] = tested on: db/db mice; assay: Hepatic lipid content (modified Folch extraction) in db/db mice; format: in vivo
Protocol: as §1
A separate portion of the liver (right lobe) was used to measure hepatic lipid content. Lipid was extracted using a modified Folch protocol. The tissue was homogenised in 2:1 chloroform/methanol solution (10 ml), and filtered into a […] glass centrifuge tube. An additional 5 ml of 2:1 chloroform/methanol solution was added, followed by 2.5 ml of 0.9% NaCl. After thorough mixing, the extract was centrifuged for 5 min at 2,000 g at 10° C. After discarding the aqueous layer, the organic layer was dried under nitrogen, and total lipid content was assessed by weighing.

[4] = tested on: db/db mice; assay: Fasting blood glucose in db/db mice, 9 days oral gavage; format: in vivo
Protocol: as §1, §2

[5] = Week 12, methazolamide 40 mg b.i.d., listed as All MTZ (Alone + Met)
[6] = methazolamide 40 mg b.i.d., listed as All MTZ (Alone + Met)
[7] = methazolamide 40 mg b.i.d., listed as MTZ Alone
[8] = baseline (Day 0), before treatment, type 2 diabetes patients, listed as MTZ Alone
[9] = listed as All MTZ (Alone + Met)

For `CC(=O)/N=c1/sc(S(N)(=O)=O)nn1C` [methazolamide], the “ALT Week 12, Mean ± SD” value [1, 5] was 20.9 ± 9.8 U/L, the “ALT Week 12, Median (range)” value [1, 5] was 19 (8-50) U/L and the “ALT Week 12, Mean ± SD” value ([1]; Week 12, methazolamide 40 mg b.i.d., listed as MTZ Alone) was 22.1 ± 10.1 U/L. The “ALT Week 24, Mean ± SD” value [1, 6] was 21.3 ± 12.3 U/L, the “ALT Week 24, Median (range)” value [1, 6] was 20 (7-64) U/L and the “ALT Week 24, Mean ± SD” value [1, 7] was 22.0 ± 12.6 U/L. For the same compound, the “ALT Week 24, Median (range)” value [1, 7] was 17 (9-49) U/L, the “ALT Day 0, Median (range)” value ([1]; baseline (Day 0), before treatment, type 2 diabetes patients, listed as All MTZ (Alone + Met)) was 27.5 (16-83) U/L and the “ALT Day 0, Mean ± SD” value [1, 8] was 33.1 ± 16.9 U/L. For the same compound, the “ALT Day 0, Median (range)” value [1, 8] was 29 (16-83) U/L, the “ΔALT Week 12, Mean ± SD” value [1, 9] was −10.9 ± 7.7 and the “ΔALT Week 12, Median (range)” value [1, 9] was −9 (−40, −2). For the same compound, the “ΔALT Week 12, Mean ± SD” value ([1]; listed as MTZ Alone) was −10.4 ± 9.3, the “ΔALT Week 12, Median (range)” value ([1]; listed as MTZ Alone) was −8.5 (−40, −4) and the “ΔALT Week 24, Mean ± SD” value [1, 9] was −10.7 ± 8.2. For the same compound, the “ΔALT Week 24, Median (range)” value [1, 9] was −8.5 (−34, +4), the “ΔALT Week 24, Mean ± SD” value ([1]; listed as MTZ Alone) was −11.0 ± 8.1 and the “ΔALT Week 24, Median (range)” value ([1]; listed as MTZ Alone) was −8 (−34, −3). For the same compound, the “ΔALT Week 12, MTZ-Placebo” value ([1]; Week 12, listed as All MTZ (Alone + Met)) was −14.8*^§, the “ΔALT Week 12, MTZ-Placebo” value ([1]; Week 12, listed as MTZ Alone) was −18.1 and the “ΔALT Week 24, MTZ-Placebo” value [1, 9] was −9.3^†§. The “ΔALT Week 24, MTZ-Placebo” value ([1]; listed as MTZ Alone) was −8.0, the “time of treatment after which reduction in blood ALT levels was evident” value ([1]; patients treated with methazolamide) was 1 week and the “time of treatment after which reduced ALT level reached a plateau” value ([1]; plateau maintained for the remainder of the 24 week treatment period) was 2 weeks. The “treated db/db mice that appeared to have greatly reduced hepatic steatosis (liver histology)” value [2] was 2 of the 4, the “Liver lipid content (% of liver weight), Day 9” value ([3]; Day 9, 50 mg/kg/day oral gavage, p < 0.05 vs vehicle) was 7.4 ± 1.2% and the “liver lipid content (w/w) lower compared to vehicle treated controls” value ([3]; after 9 days of treatment, db/db mice) was 48%. For the same compound, the “Fasting Blood Glucose, Day 0” value ([4]; Day 0 (baseline), male db/db mice, n=4) was 26.0 ± 1.2 mM, the “Fasting Blood Glucose, Day 9” value ([4]; Day 9, 50 mg/kg/day oral gavage, p < 0.05 vs Day 0) was 13.7 ± 2.4 mM and the “reduction of fasting blood glucose levels relative to vehicle treated-controls” value ([4]; db/db mice, 50 mg/kg/day, 9 days) was 47%.
